The values below come from patent US20200138827A1, “SMALL MOLECULE MODULATORS OF HUMAN STING” (Curadev Pharma Limited, priority 2017, published 2020).

Experiment [1] has as its target T1, WT/R232 STING protein (Homo sapiens, UniProt Q86WV6, H232R).
T1 construct: host or cells: HEK293T
Kind of experiment: Luciferase reporter assay in HEK293T-hSTING-Luciferase cells, WT/R232. The settings on record: 20 hr stimulation, read-out: R232 Activity (EC50 range). Type of experiment: cell-based. An outline of the steps:
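Clonal HEK293T cells stably expressing human STING R232 plus an ISRE/ISG54-driven luciferase reporter, 5×10^5 per well, stimulated with compounds for 20 h. Secreted luciferase in supernatant measured by luminescence; […].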
(In general: A reporter such as luciferase makes a cellular process visible.)

Experiment [2] has as its target T2, hSTING(H232) (Homo sapiens, UniProt Q86WV6).
T2 construct: host or cells: HEK293T
Kind of experiment: Luciferase reporter assay in HEK293T-hSTING-Luciferase cells, H232 polymorph. It is filed as cell-based. The following applies: 20 hr stimulation, read-out: H232 activity (EC50 range). The source says:
(§1) • a) Stable STING expressing cells—Stable HEK293T STING-expressing cell lines were generated using plasmids purchased from Invivogen, Calif., USA, that contain STING cDNA cloned into the pUNO-1 vector under hEF1-HTLV promoter and containing the Blasticidin selection cassette. The plasmids hSTING(R232), hSTING(H232), hSTING(HAQ) were directly procured from Invivogen while hSTING (AQ) and hSTING (Q) were derived from hSTING(HAQ) and hSTING (R232) plasmids respectively by using a PCR based site directed mutagenesis method. These vectors were individually transfected into HEK293T cells using Lipofectamine (Invitrogen) and transfected cells were selected under Blasticidin selection. These transfected cells were further subjected to clonal selection using the limiting dilution method to obtain clonally pure populations of HEK cells transfected with each of the above mentioned human STING variants. Only those clones were selected in which ligand independent activation of STING was minimal. • b) Stable Luciferase reporter gene expressing cells—Stable HEK293T Luciferase reporter gene expressing cell lines were generated using pCDNA4 plasmids under an IRF-inducible promoter. This promoter is comprised of five tandem interferon-stimulated response elements (ISRE) fused to an ISG54 minimal promoter. This vector was transfected into HEK293T cells using Lipofectamine (Invitrogen) and transfected cells were selected under Zeocin selection. These transfected cells were further subjected to clonal selection using the limiting dilution method to obtain clonally pure populations of HEK cells transfected the Luciferase reporter construct. Only those clones were selected in which ligand independent induction of luciferase was minimal.
(§2) 5×10^5 clonally selected HEK293T-hSTING-Luciferase cells were seeded in 384-well plates in growth medium and stimulated with novel compounds. After 20 hr of stimulation supernatant were removed and secretary reporter gene activity were measured using the Quanti-Luc detection system (Invivogen) on a Spectramax i3X luminometer.
(§3) The 5 major polymorphisms of human STING are shown in FIG. 1, with their prevalence in human populations indicated.

Experiment [3] has as its target T3, hSTING(HAQ) (Homo sapiens, UniProt Q86WV6, G230A/H232R/R293Q/R71H).
T3 construct: host or cells: HEK293T
Kind of experiment: Luciferase reporter assay in HEK293T-hSTING-Luciferase cells, HAQ polymorph. It is filed as cell-based. The settings on record: 20 hr stimulation, read-out: HAQ activity (EC50 range).
Text: as §1, §2, §3

The test system of experiment [4] is IRF pathway. Nature of the experiment: Reporter gene expression assay in THP1-Dual cells, IRF axis (secreted Lucia luciferase). It is filed as cell-based, human. The settings on record: read-out: THP-IRF activity (EC50 range). Here is the method:
(§4) THP1-Dual™ cells (Invivogen) were derived from the human THP-1 monocyte cell line by stable integration of two inducible reporter constructs. As a result, THP1-Dual™ cells allow the simultaneous study of the NF-κB pathway, by monitoring the activity of secreted SEAP, and the IRF pathway, by assessing the activity of a secreted luciferase (Lucia). […] THP1-Dual™ cells were seeded in 384-well plates in growth medium and stimulated with novel compounds. After […] of stimulation supernatant were removed and reporter proteins were readily measured in the cell culture supernatant using QUANTI-Blue™ (Invivogen), a SEAP detection reagent, and QUANTI-Luc™ (Invivogen), a luciferase detection reagent on a Spectramax i3X luminometer.

Experiment [5] has as its system NF-κB pathway. Kind of experiment: Reporter gene expression assay in THP1-Dual cells, NFkB axis (secreted SEAP). It is filed as cell-based, human. The following applies: read-out: THP-NFKB activity (EC50 range). Here is the method: as §4

Read-outs that look alike come from different tables or passages of the source. Bounds are passed on as bounds.

A word on the EC50: it is the concentration that produces a half-maximal response.

T1 sequence (Q86WV6 whole entry H232R): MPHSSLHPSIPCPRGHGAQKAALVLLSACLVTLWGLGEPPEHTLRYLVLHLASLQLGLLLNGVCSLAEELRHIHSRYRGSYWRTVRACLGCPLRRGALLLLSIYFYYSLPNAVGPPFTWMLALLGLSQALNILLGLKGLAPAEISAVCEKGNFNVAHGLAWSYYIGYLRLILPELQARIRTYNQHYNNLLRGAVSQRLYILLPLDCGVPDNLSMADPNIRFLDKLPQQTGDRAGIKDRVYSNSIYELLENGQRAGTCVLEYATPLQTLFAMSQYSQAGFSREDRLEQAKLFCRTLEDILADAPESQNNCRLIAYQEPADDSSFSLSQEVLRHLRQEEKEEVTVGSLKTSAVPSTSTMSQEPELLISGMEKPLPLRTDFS
T2 sequence (Q86WV6 whole entry): as the sequence (Q86WV6 whole entry H232R) above, with R232H counted along it
T3 sequence (Q86WV6 whole entry R71H/G230A/H232R/R293Q): as the sequence (Q86WV6 whole entry H232R) above, with R71H, G230A, R293Q counted along it

`Cc1ccc(CNC(=O)c2ccc3c(n2)N(Cc2cc(F)cc(F)c2)C(=O)C(C)S3)o1` (centres unmarked) [Example 198, 4-(3,5-difluorobenzyl)-2-methyl-N-((5-methylfuran-2-yl)methyl)-3-oxo-3,4-dihydro-2H-pyrido[3,2-b][1,4]thiazine-6-carboxamide]: the EC50 in experiment [1] is less than 1 µM; in experiment [2], less than 1 µM; in experiment [3], less than 1 µM; in experiment [4], 1 to 10 µM; in experiment [5], 1 to 10 µM.

Regarding `Cc1cccc(CNC(=O)c2ccc3c(c2)N(Cc2cc(F)cc(F)c2)C(=O)C(C)S3)c1` (centres unmarked) [Example 144, 4-(3,5-difluorobenzyl)-2-methyl-N-(3-methylbenzyl)-3-oxo-3,4-dihydro-2H-benzo[b-1,4]thiazine-6-carboxamide], the concentration giving a half-maximal response (EC50) in experiment [1] is less than 1 µM; in experiment [2], 1 to 10 µM; in experiment [3], 1 to 10 µM; in experiment [4] (Homo sapiens, THP1-Dual), 1 to 10 µM; in experiment [5] (Homo sapiens, THP1-Dual) it was 1 to 10 µM.

For the molecule `O=C(NCc1ccc(F)cc1F)c1ccc2c(c1)N(Cc1c(F)cccc1Cl)C(=O)CS2` [Example 34, 4-(2-chloro-6-fluorobenzyl)-N-(2,4-difluorobenzyl)-3-oxo-3,4-dihydro-2H-benzo[b-1,4]thiazine-6-carboxamide], the EC50 is less than 1 µM in experiment [1]; less than 1 µM in experiment [2]; 1 to 10 µM in experiment [3]; greater than 10 µM in experiment [4] (Homo sapiens, THP1-Dual); greater than 10 µM in experiment [5] (Homo sapiens, THP1-Dual).

For the molecule `O=C(NCc1ccco1)c1ccc2c(c1)N(Cc1cc(F)cc(F)c1)C(=O)CS2` [Example 87, 4-(3,5-difluorobenzyl)-N-(furan-2-ylmethyl)-3-oxo-3,4-dihydro-2H-benzo[b][1,4] thiazine-6-carboxamide], the EC50 was less than 1 µM in experiment [1]; 1 to 10 µM in experiment [2]; greater than 10 µM in experiment [3]; greater than 10 µM in experiment [4] (Homo sapiens, THP1-Dual); greater than 10 µM in experiment [5] (Homo sapiens, THP1-Dual).

For the molecule `O=C(NCc1c(F)cc(F)cc1F)c1cnc2c(c1)N(Cc1cc(F)cc(F)c1)C(=O)CS2` [Example 200, 1-(3,5-difluorobenzyl)-2-oxo-N-(2,4,6-trifluorobenzyl)-2,3-dihydro-1H-pyrido[2,3-b] [1,4]thiazine-7-carboxamide], the EC50 in experiment [1] is less than 1 µM; in experiment [2], 1 to 10 µM; in experiment [3], 1 to 10 µM; in experiment [4] (Homo sapiens, THP1-Dual), greater than 10 µM; in experiment [5] (Homo sapiens, THP1-Dual), greater than 10 µM.

Take `Cc1cccc(CNC(=O)c2ccc3c(c2)N(Cc2ccccc2F)C(=O)C(C)S3)c1` (centres unmarked) [Example 141, 4-(2-fluorobenzyl)-2-methyl-N-(3-methylbenzyl)-3-oxo-3,4-dihydro-2H-benzo[b-1,4]thiazine-6-carboxamide]: the EC50 in experiment [1] was less than 1 µM; in experiment [2] it was 1 to 10 µM; in experiment [3], less than 1 µM; in experiment [4] (Homo sapiens, THP1-Dual), 1 to 10 µM; in experiment [5] (Homo sapiens, THP1-Dual) it was 1 to 10 µM.

For the molecule `C[C@@H]1Oc2ccc(C(=O)NCc3c(F)cc(F)cc3F)cc2N(Cc2cc(F)cc(F)c2)C1=O` [Example 243, (S)-4-(3,5-difluorobenzyl)-2-methyl-3-oxo-N-(2,4,6-trifluorobenzyl)-3,4-dihydro-2H-benzo[b][1,4] oxazine-6-carboxamide], the EC50 in experiment [1] was less than 1 µM; in experiment [2], less than 1 µM; in experiment [3], less than 1 µM; in experiment [4] it was greater than 10 µM; in experiment [5] it was greater than 10 µM.

Turning to `CC1Sc2ncc(C(=O)NCc3ccccc3)cc2N(Cc2c(F)cccc2Cl)C1=O` (centres unmarked) [Example 201, N-benzyl-1-(2-chloro-6-fluorobenzyl)-3-methyl-2-oxo-2,3-dihydro-1H-pyrido[2,3-b][1,4]thiazine-7-carboxamide], the EC50 in experiment [1] was 1 to 10 µM; in experiment [2], 1 to 10 µM; in experiment [3] it was 1 to 10 µM; in experiment [4] (Homo sapiens, THP1-Dual), greater than 10 µM; in experiment [5] (Homo sapiens, THP1-Dual), greater than 10 µM.

Consider `O=C(NCc1ccco1)c1ccc2c(n1)N(Cc1c(F)cccc1Cl)C(=O)CS2` [Example 181, 4-(2-chloro-6-fluorobenzyl)-N-(furan-2-ylmethyl)-3-oxo-3,4-dihydro-2H-pyrido[3,2-b-1,4]thiazine-6-carboxamide], for which the EC50 was 1 to 10 µM in experiment [1]; greater than 10 µM in experiment [2]; greater than 10 µM in experiment [3]; greater than 10 µM in experiment [4] (Homo sapiens, THP1-Dual); greater than 10 µM in experiment [5] (Homo sapiens, THP1-Dual).

Regarding `O=C(NCc1ccc(F)cc1)c1ccc2c(c1)N(Cc1c(F)cccc1Cl)C(=O)CC2` [Example 269, 1-(2-chloro-6-fluorobenzyl)-N-(4-fluorobenzyl)-2-oxo-1,2,3,4-tetrahydroquinoline-7-carboxamide], the EC50 in experiment [1] was less than 1 µM; in experiment [2] it was greater than 10 µM; in experiment [3], 1 to 10 µM; in experiment [4] (Homo sapiens, THP1-Dual), greater than 10 µM; in experiment [5] (Homo sapiens, THP1-Dual), greater than 10 µM.

As for `CC1Sc2ncc(C(=O)NCc3cc4ccccc4o3)cc2N(Cc2cc(F)cc(F)c2)C1=O` (centres unmarked) [Example 194, N-(benzofuran-2-ylmethyl)-1-(3,5-difluorobenzyl)-3-methyl-2-oxo-2,3-dihydro-1H-pyrido[2,3-b][1,4]thiazine-7-carboxamide], the EC50 in experiment [1] is less than 1 µM; in experiment [2], less than 1 µM; in experiment [3], less than 1 µM; in experiment [4] it was 1 to 10 µM; in experiment [5], 1 to 10 µM.

Turning to `O=C(NCc1cc2ccccc2o1)c1ccc2c(n1)N(Cc1cc(F)cc(F)c1)C(=O)CC2` [Example 281, N-(benzofuran-2-ylmethyl)-8-(3,5-difluorobenzyl)-7-oxo-5,6,7,8-tetrahydro-1,8-naphthyridine-2-carboxamide], the EC50 in experiment [1] was 1 to 10 µM; in experiment [2], 1 to 10 µM; in experiment [3], 1 to 10 µM; in experiment [4] (Homo sapiens, THP1-Dual), greater than 10 µM; in experiment [5] (Homo sapiens, THP1-Dual), greater than 10 µM.

On to `O=C(NCc1c(F)cccc1F)c1ccc2c(c1)N(Cc1c(F)cccc1Cl)C(=O)CS2` [Example 31, 4-(2-chloro-6-fluorobenzyl)-N-(2,6-difluorobenzyl)-3-oxo-3,4-dihydro-2H-benzo[b-1,4]thiazine 6-carboxamide], for which the EC50 in experiment [1] was less than 1 µM; in experiment [2] it was less than 1 µM; in experiment [3] it was 1 to 10 µM; in experiment [4] (Homo sapiens, THP1-Dual), greater than 10 µM; in experiment [5] (Homo sapiens, THP1-Dual), greater than 10 µM.

As to `CC1Sc2ccc(C(=O)NCc3ccc(F)cc3F)nc2N(Cc2c(F)cccc2Cl)C1=O` (centres unmarked) [Example 187, 4-(2-chloro-6-fluorobenzyl)-N-(2,4-difluorobenzyl)-2-methyl-3-oxo-3,4-dihydro-2H-pyrido[3,2-b-1,4]thiazine-6-carboxamide], the EC50 is 1 to 10 µM in experiment [1]; greater than 10 µM in experiment [2]; greater than 10 µM in experiment [3]; greater than 10 µM in experiment [4] (Homo sapiens, THP1-Dual); greater than 10 µM in experiment [5] (Homo sapiens, THP1-Dual).

With `CC1Sc2ncc(C(=O)NCc3c(F)cc(F)cc3F)cc2N(Cc2cc(F)cc(F)c2)C1=O` (centres unmarked) [Example 192, 1-(3,5-difluorobenzyl)-3-methyl-2-oxo-N-(2,4,6-trifluorobenzyl)-2,3-dihydro-1H-pyrido[2,3-b][1,4]thiazine-7-carboxamide], the EC50 in experiment [1] is less than 1 µM; in experiment [2], less than 1 µM; in experiment [3] it was less than 1 µM; in experiment [4] (Homo sapiens, THP1-Dual), 1 to 10 µM; in experiment [5] (Homo sapiens, THP1-Dual), 1 to 10 µM.

`C[C@@H]1Oc2ccc(C(=O)NCc3c(F)cc(F)cc3F)cc2N(Cc2cc(F)cc(F)c2)C1=O` [Example 234, (S)-4-(3,5-difluorobenzyl)-2-methyl-3-oxo-N-(2,4,6-trifluorobenzyl)-3,4-dihydro-2H-benzo[b-1,4]oxazine-6-carboxamide]: the EC50 in experiment [1] was less than 1 µM; in experiment [2], 1 to 10 µM; in experiment [3], 1 to 10 µM; in experiment [4] (Homo sapiens, THP1-Dual), greater than 10 µM; in experiment [5] (Homo sapiens, THP1-Dual), greater than 10 µM.
